According to US6727285B1, “Use of D-arginine and/or L-arginine to protect the amino groups of biological substances from damage, inactivation, or modification by toxic carbonyls and/or dicarbonyls” (priority 1995, dated 2004):
Read-outs that look alike come from different tables or passages of the source.

Experiments:
bovine serum albumin [1] = biological target: T1, bovine serum albumin (Bos taurus, UniProt P02769); format: biochemical; settings: for gel formation of albumin samples: pretreated with 1 millimole, 2 ml 30% BSA, 1 millimole methylglyoxal, HEPES buffered, 98.6 F., 217 rpm
T1 construct: HEPES salt, HEPES acid, and bovine serum albumin was obtained from Sigma; purchased Sigma
Procedure: The magnetic stirrer was set to 217 rpm. The pH was checked at five minutes.
The pH was constantly monitored as were the color and fluid characteristics of the mixture. […] The end-point was recorded when a visible non-flowing gel formed in the tube and could not be caused to flow when the tube was inverted at 40 degrees below the horizontal for two minutes.

bovine serum albumin [2] = test: Protectant pretreatment against methylglyoxal cross-linking of HEPES-buffered bovine serum albumin (Example 2, Table 5); format: biochemical; settings: 2 ml 30% BSA, 1 millimole protectant, 1 millimole methylglyoxal
Procedure: As described in TABLE #5, 2 cc of 30% bovine serum albumin was added by glass pipette to each of 6 glass 7 ml. test tubes numbered 1 through 6. 1 millimole of L-arginine hydrochloride in 0.5 ml. of 6 molar HEPES buffer was added to tube #1. 1 millimole of L-arginine hydrochloride in 0.4 ml. of 6 molar HEPES buffer was added to tube #2. 1 millimole D-arginine hydrochloride in 0.5 ml. of 6 molar HEPES buffer was added to tube #3. 1 millimole D-arginine hydrochloride in 0.4 ml. of 6 molar HEPES buffer was added to tube #4. 0.5 ml. of 6 molar HEPES buffer was added to tube #5. 1 millimole of glycocyamine in 0.5 ml. of 6 molar HEPES buffer was added to tube #6.
The pH was measured periodically and observations were made and recorded. At three hours the heating unit was reduced to room temperature, 75 degrees Fahrenheit, to prevent drying and the reaction allowed to proceed.

bovine serum albumin [3] = test: Protectant pretreatment against methylglyoxal gel formation of bovine serum albumin, pH adjusted by titration NaOH/HCL (Example 3, Table 6); format: biochemical
Procedure: As described in TABLE #6,2 ml. bovine serum albumin 30% solution was added to each of eight 7 ml. glass test tubes. One millimole of guanidine was added to tube #1; no protectant was added to tubes #2, #3, and #4. […] Into test tube #6 was added 1 millimole of L-arginine hydrochloride, the pH was adjusted to 7.40 by micro-drop titration. Into test tube #7 was added 1 millimole of L-arginine hydrochloride, not pH adjusted. Into test tube #8 was added 1 millimole of D-arginine hydrochloride, not pH adjusted. […] After 3 hours the heating unit was turned off reducing the temperature to room temperature, 75 degrees Fahrenheit, to prevent the drying out of the sample and the reaction was allowed to proceed overnight.

[4] = test system: New Zealand White rabbits made diabetic by streptozotocin; settings: arginine HCL oral 30 mg/kg/day or i.v. 10 mg/kg/day, radiolabeled methylglyoxal i.v. daily
Procedure: (§1) Group 2: The rabbits of group 2 are fed a diet supplemented with oral D-arginine HCL 30 mg/kg/day (or an appropriate dose which can range from, for example, but not limited to, 1 mg/kg/day to 100 mg/kg/day).
(§2) Group 3: The rabbits of group 3 are fed a diet supplemented with oral L-arginine HCL 30 mg/kg/day (or an appropriate dose which can range from, for example, but not limited to, 1 mg/kg/day to 100 mg/kg/day).
(§3) Group 4: The rabbits of group 4 receive L-arginine HCL by ear vein in 10 cc normal saline at a dose of 10 mg/kg/day (or an appropriate dose which can range from, for example, but not limited to, 1 mg/kg/day to 100 mg/kg/day) for the duration of the experiment.
(§4) Group 5: The rabbits of group 5 receive D-arginine HCL by ear vein in 10 cc normal saline at a dose of 10 mg/kg/day (or an appropriate dose which can range from, for example, but not limited to, 1 mg/kg/day to 100 mg/kg/day) for the duration of the experiment.
(§5) At the end of the experiment, all animals are sacrificed and their kidneys removed, sectioned and examined for gross and microscopic changes, as well as for accumulation of the radiolabel, with special attention to the glomerular basement membrane.

[5] = test system: New Zealand White rabbits made diabetic by streptozotocin; test: Streptozotocin-diabetic rabbits given i.v. radiolabeled glucose, kidney examination (Example 6); settings: arginine HCL oral 30 mg/kg/day or i.v. 10 mg/kg/day, radiolabeled glucose i.v. daily
Procedure: as §1, §2, §3, §4, §5

bovine serum albumin [6] = test: Blocking of methylglyoxal or glyoxal cross-linking (gel formation) of albumin, inventor's tests; format: biochemical; settings: for gelatin formation of bovine serum albumin when methylglyoxal is added: acidic solution, room temperature, 2 cc BSA pretreated with one millimole; for gelatin formation of bovine serum albumin when methylglyoxal is added / conversion of bovine serum albumin from liquid to gelatin by methylglyoxal: one millimole methylglyoxal; for blocking of the cross-linking of albumin by methylglyoxal or glyoxal: arginines: hydrochloride salts and free base forms; for conversion of bovine serum albumin from liquid to gelatin by methylglyoxal: pH 6.4 to 7.4, room temperature, 75, 80, 83, 90 and 98.6 degrees Fahrenheit, 2 cc 30% BSA pretreated with one millimole; for methylglyoxal-induced gel formation of liquid bovine serum albumin: pretreatment, free base or hydrochloride form
ovalbumin = biological target: T2, ovalbumin (Gallus gallus, UniProt P01012); test: Reaction of methylglyoxal with ovalbumin (egg albumin); format: biochemical
T2 sequence (P01012 1-386): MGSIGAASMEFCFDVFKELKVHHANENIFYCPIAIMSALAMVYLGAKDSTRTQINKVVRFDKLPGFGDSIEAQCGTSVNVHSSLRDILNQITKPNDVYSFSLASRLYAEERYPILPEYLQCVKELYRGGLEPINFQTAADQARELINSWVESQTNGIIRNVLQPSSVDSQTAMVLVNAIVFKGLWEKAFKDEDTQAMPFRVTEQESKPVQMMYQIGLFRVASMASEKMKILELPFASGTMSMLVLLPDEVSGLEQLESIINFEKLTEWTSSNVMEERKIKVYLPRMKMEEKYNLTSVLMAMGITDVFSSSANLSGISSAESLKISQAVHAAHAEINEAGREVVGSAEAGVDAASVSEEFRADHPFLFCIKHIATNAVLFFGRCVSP

[7] = test system: insulin dependent diabetic; test: L-arginine hydrochloride in a diabetic patient with painful feet (Example 9); format: in vivo, human; settings: 700 mg twice a day (1,400 mg per day), 120kg, painful feet secondary to vasculopathy and/or neuropathy, within 6 weeks
[8] = test system: New Zealand White rabbits; settings: arginine HCL oral 30 mg/kg/day or i.v. 10 mg/kg/day, methylglyoxal i.v. daily
Procedure: as §1, §2, §3, §4

[9] = test system: non-diabetic animal model; test: Non-diabetic rabbits challenged with radiolabeled methylglyoxal (Example 7); settings: otherwise identical to Example 5
bovine serum albumin [10] = biological target: T1, bovine serum albumin; format: biochemical
Procedure: As described in TABLE #4, 2 cc of 30% bovine serum albumin (BSA) was added by glass pipette (Kimax 1/100) to each of three glass 7 ml. test tubes numbered 1, 2, and 3. 0.4 ml. of 6 molar HEPES buffer was added to tube #1 by glass pipette. 0.5 ml. of 6 molar HEPES buffer was added to test tube #2. 0.3 ml. of 6 molar HEPES buffer was added to tube #3.

[11] = 2 ml BSA + 1 millimole protectant not pH adjusted, 0.18 ml of 40% pH-adjusted methylglyoxal
[12] = 2 ml BSA + 1 millimole protectant, pH adjusted to 7.40-7.46 with NaOH/HCL, 0.18 ml of 40% pH-adjusted methylglyoxal

T1 sequence (P02769 25-607): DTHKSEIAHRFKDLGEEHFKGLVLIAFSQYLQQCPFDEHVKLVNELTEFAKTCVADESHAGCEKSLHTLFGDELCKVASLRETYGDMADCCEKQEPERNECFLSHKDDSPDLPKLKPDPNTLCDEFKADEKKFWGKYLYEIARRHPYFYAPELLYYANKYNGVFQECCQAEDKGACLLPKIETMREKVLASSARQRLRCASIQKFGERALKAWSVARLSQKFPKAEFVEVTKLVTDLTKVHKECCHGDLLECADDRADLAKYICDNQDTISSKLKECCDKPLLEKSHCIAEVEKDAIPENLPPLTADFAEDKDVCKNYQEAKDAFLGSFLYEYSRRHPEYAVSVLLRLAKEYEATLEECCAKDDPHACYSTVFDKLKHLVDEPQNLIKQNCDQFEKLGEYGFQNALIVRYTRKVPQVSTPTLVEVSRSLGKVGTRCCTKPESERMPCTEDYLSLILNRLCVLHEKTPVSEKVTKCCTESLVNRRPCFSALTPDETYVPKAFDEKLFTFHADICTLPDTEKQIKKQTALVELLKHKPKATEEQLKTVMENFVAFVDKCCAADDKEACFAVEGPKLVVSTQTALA

For Cl.N=C(N)NCCC[C@@H](N)C(=O)O [D-arginine Hydrochloride, D-arginine hydrochloride], the “gel formation of albumin samples” value (bovine serum albumin [1]) was “did not gel at any time and remained liquid”, the “FINAL FORM” value (bovine serum albumin [2]; 6 m HEPES 0.4 ml) was “LIQUID” and the “FINAL FORM” value (bovine serum albumin [2]; 6 m HEPES 0.5 cc/ml) was “LIQUID”. The “FINAL FORM” value (bovine serum albumin [3]; [11]) was “LIQUID”, the Observation overnight (bovine serum albumin [3]; [11]) was “later; remained liquid overnight;” and the “FINAL FORM” value (bovine serum albumin [3]; [12]) was “LIQUID”. The “Observation at 1 hr. 5 min.” value (bovine serum albumin [3]; [12]) was “brownish, yellow liquid,” and the Observation overnight (bovine serum albumin [3]; [12]) was “Remained liquid”.

In the case of N=C(N)NCCC[C@@H](N)C(=O)O [D-arginine], the “accumulation of radiolabeled methylglyoxal in the kidneys compared with the control” value [4] is reported as “reduced or absent”, the “gross and microscopic changes in the kidney compared to the control” value (from here on “gross and microscopic changes”) [4] is reported as “reduced or absent” and the “accumulation of radiolabeled glucose metabolites in the kidneys compared with the control” value [5] is reported as “reduced or absent”. The “gross and microscopic changes” value [5] was “reduced or absent”, the “binding of methylglyoxal to bovine serum albumin” value (bovine serum albumin [6]) was “capable of blocking the binding” and the “gelatin formation of bovine serum albumin when methylglyoxal is added” value (bovine serum albumin [6]) was “prevent gelatin formation”. The “blocking of the cross-linking of albumin by methylglyoxal or glyoxal” value (shortened to “blocking of the cross-linking of albumin”) (bovine serum albumin [6]) was “worked consistently”, the “conversion of bovine serum albumin from liquid to gelatin by methylglyoxal” value (bovine serum albumin [6]) was “the albumin remains liquid” and the “methylglyoxal-induced gel formation of liquid bovine serum albumin” value (bovine serum albumin [6]) was “block methylglyoxal-induced gel formation”. For the same compound, the “binding of methylglyoxal to egg albumin” value (ovalbumin) was “capable of blocking the binding”.

For Cl.N=C(N)NCCC[C@H](N)C(=O)O [L-arginine Hydrochloride, L-arginine hydrochloride], the “gel formation of albumin samples” value (bovine serum albumin [1]) was “did not gel at any time and remained liquid”, the “FINAL FORM” value (bovine serum albumin [2]; 6 m HEPES 0.4 ml) was “LIQUID” and the “FINAL FORM” value (bovine serum albumin [2]; 6 m HEPES 0.5 cc/ml) was “LIQUID”. For the same compound, the Observation overnight (bovine serum albumin [3]; [11]) was “became viscous overnight;”, the “FINAL FORM” value (bovine serum albumin [3]; [12]) was “LIQUID” and the Observation overnight (bovine serum albumin [3]; [12]) was “later; remained liquid overnight;”. The “pain in both the feet and hands” value [7] was “marked reduction in pain”.

With N=C(N)NCCC[C@H](N)C(=O)O [L-arginine] the “accumulation of radiolabeled methylglyoxal in the kidneys compared with the control” value [4] was “reduced or absent”, the “gross and microscopic changes” value [4] was “reduced or absent” and the “accumulation of radiolabeled glucose metabolites in the kidneys compared with the control” value [5] was “reduced or absent”. The “gross and microscopic changes” value [5] was “reduced or absent”, the “binding of methylglyoxal to bovine serum albumin” value (bovine serum albumin [6]) was “capable of blocking the binding” and the “gelatin formation of bovine serum albumin when methylglyoxal is added” value (bovine serum albumin [6]) was “prevent gelatin formation”. The “blocking of the cross-linking of albumin” value (bovine serum albumin [6]) was “worked consistently”, the “conversion of bovine serum albumin from liquid to gelatin by methylglyoxal” value (bovine serum albumin [6]) was “the albumin remains liquid” and the “methylglyoxal-induced gel formation of liquid bovine serum albumin” value (bovine serum albumin [6]) was “block methylglyoxal-induced gel formation”. For the same compound, the “binding of methylglyoxal to egg albumin” value (ovalbumin) was “capable of blocking the binding”.

With N=C(N)NN [aminoguanidine, reference compound] the “blocking of the cross-linking of albumin” value (bovine serum albumin [6]) was “do not block”.

With N=C(N)NCCC[C@H](N)C(=O)O [arginine, 2-amino-5-guanidovaleric acid] the “level of methylglyoxal in the blood” value [8] was “reduces” and the “changes caused by methylglyoxal” value [9] was “blocks”.

NC(=O)NCCC[C@H](N)C(=O)O [citrulline, reference compound] was tested, and the “blocking of the cross-linking of albumin” value (bovine serum albumin [6]) was “do not block”.

With NCCS [cystieamine, reference compound] the “blocking of the cross-linking of albumin” value (bovine serum albumin [6]) was “do not block”.

N[C@@H](CSSC[C@H](N)C(=O)O)C(=O)O [cystine, reference compound] was tested, and the “blocking of the cross-linking of albumin” value (bovine serum albumin [6]) was “do not block”.

With N/N=C(\N)NN [diaminoguanidine, reference compound] the “blocking of the cross-linking of albumin” value (bovine serum albumin [6]) was “do not block”.

For N=C(N)NCC(=O)O [glycocyamine, reference compound], the “blocking of the cross-linking of albumin” value (bovine serum albumin [6]) was “do not block”.

For N=C(N)N [guanidine, reference compound], the “FINAL FORM” value (bovine serum albumin [3]; 2 ml BSA, 1 millimole protectant added to BSA, 1 millimole (0.18 ml of 40%) methylglyoxal pH adjusted to 7.40) was “GEL” and the “blocking of the cross-linking of albumin” value (bovine serum albumin [6]) was “do not block”.

With CC(=O)C=O [methylglyoxal] the “product formed with bovine serum albumin” value (bovine serum albumin [1]; pH 6.4 to 7.4, buffered and unbuffered systems) was “solid gelatin”, the “FINAL FORM” value (bovine serum albumin [10]; pH 7.35) was “GEL” and the “time after mixing until firm yellow gelatin formed” value (bovine serum albumin [10]; sample 1: 2 ml 30% BSA + 0.4 cc 6 m HEPES (pH 7.40), 1 millimole methylglyoxal (0.18 ml of 40%, pH not adjusted), no protectant, 98.6° F.) was less than 5 minutes after mixing. For the same compound, the “time until sudden gelatin formation” value (bovine serum albumin [10]; sample 3: 2 ml 30% BSA + 0.3 cc 6 m HEPES (pH 7.35), 0.20 ml of 40% methylglyoxal buffered to 7.36, counted from the 5-minute pH reading ('33 minutes later')) was “pH 7.07 at 5 minutes; 33” and the “conversion of liquid ovalbumin” value (ovalbumin; 0.2 cc of 40% methylglyoxal, two cc of liquid ovalbumin, within a matter of hours, 1976 unpublished works) was “from liquid to solid gelatin”.

For NC(N)=O [urea, reference compound], the “blocking of the cross-linking of albumin” value (bovine serum albumin [6]) was “do not block”.
